Test results taken from BindingDB's records for doi:10.7270/Q28G8J4C (Broad Institute, 2009).

target: T1, POsterior Segregation (Caenorhabditis elegans, UniProt G5EF15); assay: disruptors of C. elegans POS-1 RNA interaction – biochemical, fluorescence polarization, dose response (AID 1964)
T1 sequence (G5EF15 whole entry): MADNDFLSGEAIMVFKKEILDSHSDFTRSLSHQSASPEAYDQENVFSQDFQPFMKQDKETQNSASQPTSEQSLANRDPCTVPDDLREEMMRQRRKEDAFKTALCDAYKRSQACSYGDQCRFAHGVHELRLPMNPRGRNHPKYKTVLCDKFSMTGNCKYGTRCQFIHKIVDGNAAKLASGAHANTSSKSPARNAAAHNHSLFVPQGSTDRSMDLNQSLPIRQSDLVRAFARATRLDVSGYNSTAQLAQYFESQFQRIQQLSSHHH

Structure (SMILES)	EC50 [µM]
N#CC1C(=N)OC2=C(C(=O)CCC2)C1c1cc2c(cc1Br)OCO2 (configuration not stated) [2-azanyl-4-(6-bromanyl-1,3-benzodioxol-5-yl)-5-oxidanylidene-4,6,7,8-tetrahydrochromene-3-carbonitrile]	> 300
COc1ccc(N=Cc2cc3c(cc2O)OC(=N)C(C#N)C3c2ccccc2)cc1 (configuration not stated) [(6E)-2-amino-6-[(4-methoxyanilino)methylidene]-7-oxo-4-phenyl-4H-1-benzopyran-3-carbonitrile]	> 300
Brc1ccc(C2=Nc3ncnn3C(c3ccco3)C2)cc1 (configuration not stated)	> 300
Cc1[nH]c2ccccc2c1/C=C1\N=C(c2ccc(F)cc2)OC1=O [2-(4-fluorophenyl)-4-[(2-methyl-1H-indol-3-yl)methylene]-1,3-oxazol-5(4H)-one]	> 300
CCOc1ccc(N=C(C(=C(Cl)C(Cl)Cl)[N+](=O)[O-])n2cncn2)cc1 [MLS000519210]	46.9
COC(=O)c1ccc(-n2c(C)cc(CN=Nc3nc(C)cc(=O)[nH]3)c2C)cc1 [SMR000364461]	> 300
Oc1c(Br)cc(Br)c(C=Nn2c(-c3ccccc3)n[nH]c2=S)c1Br [2,4,6-Tribromo-3-[(3-mercapto-5-phenyl-[1,2,4]triazol-4-ylimino)-methyl]-phenol]	8.49
O=C(Cc1nc2cc(Cl)ccc2oc1=O)c1ccco1 [(3Z)-6-chloranyl-3-[2-(furan-2-yl)-2-oxidanylidene-ethylidene]-4H-1,4-benzoxazin-2-one]	> 300
COc1ccc(C(=O)Nc2nnc(CC(=O)NN=Cc3ccc(O)cc3O)s2)cc1 [4-methoxy-N-[5-[2-oxidanylidene-2-[2-[(E)-(2-oxidanyl-4-oxidanylidene-cyclohexa-2,5-dien-1-ylidene)methyl]hydrazinyl]ethyl]-1,3,4-thiadiazol-2-yl]benzamide]	125
COc1ccc(OC)c(N2C(=O)NC(=O)C(=Cc3c[nH]c4ccccc34)C2=O)c1 [(5E)-1-(2,5-dimethoxyphenyl)-5-(1H-indol-3-ylmethylene)pyrimidine-2,4,6(1H,3H,5H)-trione]	> 300
Cc1ccc2c(c1)=C(NNc1ccccc1C)C(=O)N=2	> 300
Cc1nnc(N2C(=O)C(=O)C(C(=O)c3ccco3)C2c2ccc(C(C)(C)C)cc2)s1 (configuration not stated) [2-(4-tert-butylphenyl)-3-(furan-2-carbonyl)-4-hydroxy-1-(5-methyl-1,3,4-thiadiazol-2-yl)-2H-pyrrol-5-one]	24.9
CN(C)CCCNC=C1C(=O)NC(=O)N(CCc2ccc(F)cc2)C1=O [(5E)-5-[[3-(dimethylamino)propylamino]methylene]-1-[2-(4-fluorophenyl)ethyl]barbituric acid]	> 300
CCCCCCN1C(=O)NC(=O)C(=CNCCCn2ccnc2)C1=O [(5E)-1-hexyl-5-[[3-(1-imidazolyl)propylamino]methylidene]-1,3-diazinane-2,4,6-trione]	> 300
Cc1nnc(SC(=Cc2ccc(OCc3ccc(C(=O)O)cc3)cc2)C(=O)O)[nH]1 [4-[[4-[(E)-2-[(5-methyl-1H-1,2,4-triazol-3-yl)sulfanyl]-3-oxidanyl-3-oxidanylidene-prop-1-enyl]phenoxy]methyl]benzoic acid]	17.8
O=C(NN=Cc1c(O)n(-c2ccccc2)c(=S)[nH]c1=O)c1ccc(O)cc1 [N'-[(1Z)-(4,6-dioxo-1-phenyl-2-thioxohexahydropyrimidin-5-yl)methylene]-4-hydroxybenzohydrazide]	> 300
CCCCN1C(=O)NC(=O)C(=CNNC(=O)c2ccncc2)C1=O [Isonicotinic acid N'-[1-butyl-2,4,6-trioxo-tetrahydro-pyrimidin-(5E)-ylidenemethyl]-hydrazide]	> 300
Cc1[nH]n(C(N)=S)c(=O)c1N=Nc1ccc(S(N)(=O)=O)cc1 [3-methyl-5-oxidanylidene-4-[(4-sulfamoylphenyl)diazenyl]-4H-pyrazole-1-carbothioamide]	19.7
Cc1ccc(C2C(C(=O)c3ccco3)C(=O)C(=O)N2c2nnc(C)s2)cc1 (configuration not stated) [3-(furan-2-carbonyl)-4-hydroxy-2-(4-methylphenyl)-1-(5-methyl-1,3,4-thiadiazol-2-yl)-2H-pyrrol-5-one]	> 300
CC1(C)CC(=O)C2=C(C1)OC(=N)C(C#N)[C@@]21C(=O)N(CC(N)=O)c2ccccc21 (stereo partly drawn) [2-[(4R)-2-amino-3-cyano-2',5-diketo-7,7-dimethyl-spiro[6,8-dihydrochromene-4,3'-indoline]-1'-yl]acetamide]	> 300
COc1cc(CN=Nc2ccc([N+](=O)[O-])cc2)ccc1OCC(=O)Nc1ccc(C)c(C)c1 [MLS000537060]	> 300
Cc1c(NC=C2C(=O)NC(=O)N(Cc3ccccc3)C2=O)c(=O)n(-c2ccccc2)n1C [(5E)-1-benzyl-5-[[(1,5-dimethyl-3-oxo-2-phenylpyrazol-4-yl)amino]methylidene]-1,3-diazinane-2,4,6-trione]	> 300
Cc1cc(=O)n(-c2ccc(C(=O)O)c(N)c2)[nH]1 [MLS000690508]	85.5
COc1ccc(C2C(C(=O)c3cccs3)C(=O)C(=O)N2c2nnc(C)s2)cc1OC (configuration not stated) [2-(3,4-dimethoxyphenyl)-1-(5-methyl-1,3,4-thiadiazol-2-yl)-4-oxidanyl-3-thiophen-2-ylcarbonyl-2H-pyrrol-5-one]	7.2
NC(=NNC=c1ccc(=C2C=CC(=O)C(C(=O)O)=C2)o1)N[N+](=O)[O-] [5-(5-{2-[amino(nitroimino)methyl]carbonohydrazonoyl}-2-furyl)-2-hydroxybenzoic acid]	29.9
CC1=C(C#N)C(=O)N(C)C(=O)C1=CNNc1ccc(C)c(C)c1 [MLS000698328]	> 300

Structure (SMILES)	EC50 [µM]
Cc1ccc(N/N=C2/C(=O)Nc3ccc(F)cc32)cc1 [5-fluoro-3-[2-(4-methylphenyl)hydrazono]indolin-2-one]	> 300
c1ccc(C2=NNC(c3ccccn3)N=N2)nc1 (configuration not stated) [SMR000549436]	25.3
O=C1NC(=O)N(CCc2ccc(F)cc2)C(=O)C1=CNNC(=O)c1ccccc1 [N'-[(E)-[1-[2-(4-fluorophenyl)ethyl]-2,4,6-trioxo-1,3-diazinan-5-ylidene]methyl]benzohydrazide]	> 300
CC1(C)CC(=O)C2=C(C1)OC(=N)C(C#N)C2c1ccccc1OC(=O)N1CCOCC1 (configuration not stated) [2-(2-amino-3-cyano-7,7-dimethyl-5-oxo-5,6,7,8-tetrahydro-4H-chromen-4-yl)phenyl morpholine-4-carboxylate]	> 300
COc1cc(OC)c(C2C3=C(CC(C)(C)CC3=O)OC(=N)C2C#N)cc1OC (configuration not stated) [SMR000054706]	> 300
Fc1ccc(C2=Nc3ncnn3C(c3ccco3)C2)cc1 (configuration not stated) [5-(4-fluorophenyl)-7-(2-furanyl)-1,7-dihydro-[1,2,4]triazolo[1,5-a]pyrimidine]	14.7
COc1cc(C2C3CN(C)CCC3=C(C#N)C(=N)C2(C#N)C#N)ccc1OC(C)C (configuration not stated) [MLS000034945]	> 300
COc1ccccc1OCC(=O)NN=Cc1c(O)ccc2ccccc12	228
CCC(C)N1C(=O)C(=CNNc2nc3c(c(=O)n(C)c(=O)n3C)n2C)C(=O)NC1=S (configuration not stated) [8-[2-[(Z)-(1-butan-2-yl-4,6-dioxo-2-sulfanylidene-1,3-diazinan-5-ylidene)methyl]hydrazinyl]-1,3,7-trimethylpurine-2,6-dione]	> 300
N#CC1C(=N)Oc2cc(O)c(Cl)cc2C1c1ccccc1F (configuration not stated) [2-Amino-6-chloro-4-(2-fluoro-phenyl)-7-hydroxy-4H-chromene-3-carbonitrile]	> 300
Cc1[nH]n(C(N)=S)c(=O)c1N=Nc1c(Cl)cc([N+](=O)[O-])cc1Cl [SMR000514008]	> 300
O=C1Nc2ccccc2/C1=N/NC(=S)Nc1ccc(O)cc1 [1-(4-hydroxyphenyl)-3-[(2-oxidanylideneindol-3-yl)amino]thiourea]	16.3
O=NCc1cccn1-c1cccc(C(=O)O)c1 [3-[2-(hydroximinomethyl)pyrrol-1-yl]benzoic acid]	> 300
CC(=N)C(C#N)C(=O)CSc1ncnc2ccccc12 (configuration not stated) [(E)-3-amino-2-(2-quinazolin-4-ylsulfanylacetyl)but-2-enenitrile]	> 300
COc1ccc(C2C(C(=O)c3cccs3)C(=O)C(=O)N2c2nncs2)cc1 (configuration not stated)	0.549
O=C(CC=Nc1ccc([N+](=O)[O-])cc1)c1ccc(Br)cc1 [(E)-1-(4-bromophenyl)-3-(4-nitroanilino)-2-propen-1-one]	> 300
COc1ccc(C2C(C(C)=O)=C(C)N=c3sc(=Cc4cc(C)n(C)c4C)c(=O)n32)c(OC)c1 (configuration not stated)	10.9
COc1ccc(OC)c(N2C(=O)C(=Cc3ccco3)C(=O)NC2=S)c1 [MLS001197216]	10.4
CCOc1cc(C=C2SC(Nc3ccc(CC)cc3)=NC2=O)ccc1OCC(=O)O [2-[2-ethoxy-4-[(Z)-[2-(4-ethylanilino)-4-oxo-1,3-thiazol-5-ylidene]methyl]phenoxy]acetic acid]	25.6
O=C1CCCC2=Nc3cc(Cl)ccc3SC12 (configuration not stated) [MLS000333002]	18.4
O=C1C(=O)N(c2ncccn2)C(c2cccs2)C1C(=O)c1ccco1 (configuration not stated) [3-(furan-2-carbonyl)-4-hydroxy-1-pyrimidin-2-yl-2-thiophen-2-yl-2H-pyrrol-5-one]	39.9
COc1ccccc1-n1c(O)c2n(-c3ccc(C)cc3)[nH]c(C(=O)c3ccccc3)c-2c1=O	13.7
COc1cc(CN=Nc2[nH]c(=O)nnc2C)ccc1O [5-[2-[(E)-(3-methoxy-4-oxocyclohexa-2,5-dien-1-ylidene)methyl]hydrazinyl]-6-methyl-2H-1,2,4-triazin-3-one]	56.8
CCCCN1C(=O)/C(=C2/Sc3ccccc3N2C)SC1=Nc1nnc[nH]1 [SMR000282142]	58.7
Cn1c(=O)[nH]c(=O)c2c1nc(N=NC=C(Br)Cc1ccccc1)n2CCO [SMR000436442]	206
O=C1NC(=O)N(Cc2ccccc2Cl)C(=O)C1=CNc1ccc(F)cc1 [(5E)-1-(2-chlorobenzyl)-5-[(4-fluoroanilino)methylene]barbituric acid]	> 300
